According to US6642251B1, “Geometrically restricted 2-indolinone derivatives as modulators of protein kinase activity” (Sugen, Inc., priority 1998, dated 2003):
Where two headings read alike, the source gives them in different places.

Experiments:
[1] = biological target: T1, human flk-1 (Homo sapiens, UniProt P35968); assay: Biochemical FLK-1 assay (bio Flk), autophosphorylation ELISA
T1 construct: expressed in transfected cells; host or cells: NIH fibroblast line (Flk-1/NIH cells, clone 3)
Method: This assay evaluates flk-1 autophosphorylation activity in vitro using ELISA.
1. Seed cell into growth medium and grow for 2-3 days to 90-100% confluency at 37° C. and 5% C)2.
2. Remove the medium and wash the cells twice with PBS. Lyse with HNTG lysis buffer. Collect all lysates and vortex mix them for 20-30 seconds.
3. Remove insoluble material by centrifugation (5-10 min at about 10,000×g).
4. Determine the protein concentration using BCA kit.
5. Partition lysate into 1 mg aliquots, store at −80° C.
1. Coat Corning 96-well ELISA plates with 2 μg/well purified L4 (or E 38) in 100 μl of PBS. Store overnight at 4° C.
2. Remove unbound proteins from wells by inverting the plate to remove the liquid. Wash one time with dH2O pat plate on paper towel to remove excess liquid.
3. Block plates with 150 μl blocking buffer per well. Incubate for 45-60 minutes with shaking at 4° C.
4. Remove the blocking buffer and wash the ELISA plate three times with dH2O and one time with TBST. Pat plate on paper towel to remove excess liquid.
5. Dilute lysate in PBS to give final concentration of 50 μg/100 μl. Add 100 μl of diluted lysate to each well. Incubate with shaking at 4° C. overnight.
6. Remove unbound proteins from wells by inverting the plate. Wash as in step 4.
7. Add 80 μl of kinase buffer to wells (90 μl to negative control wells).
8. Dilute test compounds (normally 10-fold) into wells of a polypropylene plate containing 20% DMSO in TBS.
9. Add 10 μl of the diluted compounds to the ELISA wells containing immobilized flk-1 and shake. Control wells receive no compounds.
10. From stock 1 mM ATP, prepare 0.3 mM ATP solution in dH20 (alternatively, kinase buffer may be used).
11. Add 10 μl of 0.3 mM ATP to all wells except the negative controls. Incubate for 60 min. at room temperature with shaking.
12. After 1 hr stop the kinase reaction by adding 11 μl 200 mM EDTA. Shake for 1-2 min.
13. Wash the ELISA plate 4 times with dH2O and twice with TBST.
14. Add 100 μl of 1:5000 biotinylated 4G10:TBST to all wells. Incubate 45 min with shaking at room temperature.
15. While the above is incubating, add 50 μl of solutions A & B from the ABC kit to 10 ml of TBST. These solutions must be combined approximately 30 min prior to use.
16. Wash plates as in step 4.
17. Add 100 μl of the preformed A & B complex to all wells. Incubate 30 min with shaking at room temperature.
18. Wash plates as in step 4.
19. Add 100 μl turbo-TMB. Shake at room temperature for 10-15 min.
20. When the color in the positive control wells reaches an absorbance of about 0.35-0.4, stop the reaction with 100 μl of turbo-TMB stop solution.

[2] = biological target: T2, IGF-1 receptor (Homo sapiens, UniProt P08069); assay: Cellular IGF-1 receptor assay (cell IGF); format: cell-based; settings: for IC50: 50% inhibition of target PTK activity; as to cell IGF, outcome of primary assay: key: DNH = did not hit in primary assay
T2 construct: expressed in transfected cells; host or cells: NIH3T3/IGF-1R
T2 sequence (P08069 31-1367): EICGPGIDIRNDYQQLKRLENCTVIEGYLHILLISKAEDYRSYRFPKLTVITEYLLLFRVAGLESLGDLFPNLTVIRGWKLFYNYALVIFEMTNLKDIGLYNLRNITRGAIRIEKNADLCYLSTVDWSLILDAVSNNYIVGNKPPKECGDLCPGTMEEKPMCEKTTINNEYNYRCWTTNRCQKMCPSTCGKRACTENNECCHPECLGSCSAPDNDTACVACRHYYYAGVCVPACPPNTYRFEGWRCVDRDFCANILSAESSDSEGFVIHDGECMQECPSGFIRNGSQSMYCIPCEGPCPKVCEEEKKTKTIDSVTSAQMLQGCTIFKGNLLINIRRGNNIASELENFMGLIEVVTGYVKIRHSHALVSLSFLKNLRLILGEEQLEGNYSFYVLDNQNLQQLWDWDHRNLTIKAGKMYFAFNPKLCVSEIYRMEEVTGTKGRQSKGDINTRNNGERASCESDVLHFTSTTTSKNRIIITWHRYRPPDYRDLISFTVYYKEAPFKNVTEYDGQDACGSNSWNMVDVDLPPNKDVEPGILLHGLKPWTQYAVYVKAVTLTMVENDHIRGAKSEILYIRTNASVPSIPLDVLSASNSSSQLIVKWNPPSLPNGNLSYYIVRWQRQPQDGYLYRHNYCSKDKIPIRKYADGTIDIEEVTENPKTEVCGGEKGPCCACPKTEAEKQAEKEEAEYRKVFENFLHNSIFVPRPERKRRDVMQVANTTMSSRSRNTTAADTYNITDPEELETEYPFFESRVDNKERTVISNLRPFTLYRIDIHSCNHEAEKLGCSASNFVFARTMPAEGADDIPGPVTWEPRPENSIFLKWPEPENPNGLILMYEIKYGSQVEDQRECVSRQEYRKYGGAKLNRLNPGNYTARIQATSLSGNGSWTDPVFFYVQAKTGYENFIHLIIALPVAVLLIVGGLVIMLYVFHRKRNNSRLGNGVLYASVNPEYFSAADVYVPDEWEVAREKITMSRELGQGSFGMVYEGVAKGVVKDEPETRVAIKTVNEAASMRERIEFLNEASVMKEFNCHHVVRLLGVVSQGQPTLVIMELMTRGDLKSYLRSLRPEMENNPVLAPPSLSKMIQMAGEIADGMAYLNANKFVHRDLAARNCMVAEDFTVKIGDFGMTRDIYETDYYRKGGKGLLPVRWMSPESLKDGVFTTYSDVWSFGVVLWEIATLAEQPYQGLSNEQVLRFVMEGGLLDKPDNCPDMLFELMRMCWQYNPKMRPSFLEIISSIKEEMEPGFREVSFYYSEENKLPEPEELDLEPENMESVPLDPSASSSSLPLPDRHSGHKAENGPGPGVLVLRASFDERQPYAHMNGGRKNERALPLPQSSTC
Method: The following protocol may be used to measure phosphotyrosine level on IGF-1 receptor, which indicates IGF-1 receptor tyrosine kinase activity.
a. The cell line used in this assay is 3T3/IGF-1R, a cell line genetically engineered to overexpresses IGF-1 receptor.
2. […] Incubate for 1 day then replace medium to serum-free medium (90/μl) and incubate in 5% CO2 and 37° C. overnight.
2. Remove the coating solution, and replace with 100 μl Blocking Buffer, and shake for 30 minutes. Remove the blocking buffer and wash the plate just before adding lysate.
1. The drugs are tested under serum-free condition.
2. Dilute drug stock (in 100% DMSO) 1:10 with DMEM in 96-well poly-propylene plate, and transfer 10 μl/well of this solution to the cells to achieve final drug dilution 1:100, and final DMSO concentration of 1.0%. Incubate the cells in 5% CO2 at 37° C. for 2 hours.
3. Prepare fresh cell lysis buffer (HNTG*)
4. After drug incubation for two hours, transfer 10 μl/well of 200 nM IGF-1 Ligand in PBS to the cells (Final Conc. is 20 nM), and incubate at 5% CO2 at 37° C. for 10 minutes.
5. Remove media and add 100 μl/well HNTG* and shake for 10 minutes. Look at cells under microscope to see if they are adequately lysed.
6. Use a 12-channel pipette to scrape the cells from the plate, and homogenize the lysate by repeated aspiration and dispensing. Transfer all the lysate to the antibody coated ELISA plate, and shake for 1 hour.
7. Remove the lysate, wash the plate, transfer anti-pTyr (1:3,000 with TBST) 100 μl/well, and shake for 30 minutes.
8. Remove anti-pTyr, wash the plate, transfer TAGO (1:3,000 with TBST) 100 μl/well, and shake for 30 minutes.
9. Remove detection antibody, wash the plate, and transfer fresh ABTS/H2O2 (1.2 μl H2O2 to 10 ml ABTS) 100 μl/well to the plate to start color development.
10. Measure OD at 410 nm with a reference wavelength of 630 nm in Dynatec MR5000.

[3] = biological target: T3, src protein kinase (Gallus gallus, UniProt P00523); assay: Biochemical src assay (bio SRC); settings: for IC50: 50% inhibition of target PTK activity; as to bio SRC, outcome of primary assay: key: DNH = did not hit in primary assay
T3 construct: made in house; host or cells: Schizosaccharomyces pombe strain SP200
Method: This assay is used to determine src protein kinase activity measuring phosphorylation of a biotinylated peptide as the readout.
a. Yeast transformed with src (Sugen, Inc., Redwood City, Calif.).
1. Coat ELISA plate with 0.5 μg/well anti-src mab in 100 μl of pH 9.6 sodium carbonate buffer; hold at 4° C. overnight.
2. Wash wells once with PBS.
3. Block plate with 0.15 ml 5% milk in PBS for 30 min. at room temperature.
4. Wash plate 5× with PBS.
5. Add 10 μg/well of src transformed yeast lysates diluted in Lysis Buffer (0.1 ml total volume per well). (Amount of lysate may vary between batches.) Shake plate for 20 minutes at room temperature.
1. 4G10 plate: coat 0.5 μg/well 4G10 in 100 μl PBS overnight at 4° C. and block with 150 μl of 5% milk in PBS for 30 minutes at room temperature.
1. Remove unbound proteins.from plates and wash plates 5× with PBS.
2. Add 0.08 ml Kinase Reaction Mixture per well (containing 10 μl of 10×-Kinase Buffer and 10 μM (final concentration) biotin-EEEYEEYEEEYEEEYEEEY per well diluted in water.
3. Add 10 μl of compound diluted in water containing 10% DMSO and pre-incubate for 15 minutes at room temperature.
4. Start kinase reaction by adding 10 μl/well of 0.05 mM ATP in water (5 μM ATP final).
5. Shake ELISA plate for 15 min. at room temperature.
6. Stop kinase reaction by adding 10 μl of 0.5 M EDTA per well.
7. Transfer 90 μl supernatant to a blocked 4G10 coated ELISA plate.
8. Incubate for 30 min. while shaking at room temperature.
9. Wash plate 5× with TBST.
10. Incubate with Vectastain ELITE ABC reagent (100 μl/well) for 30 min. at room temperature.
11. Wash the wells 5× with TBST.
12. Develop with Turbo TMB.

[4] = 50% inhibition of target PTK activity, read-out: bio Flk IC50

T1 sequence (P35968 20-1356): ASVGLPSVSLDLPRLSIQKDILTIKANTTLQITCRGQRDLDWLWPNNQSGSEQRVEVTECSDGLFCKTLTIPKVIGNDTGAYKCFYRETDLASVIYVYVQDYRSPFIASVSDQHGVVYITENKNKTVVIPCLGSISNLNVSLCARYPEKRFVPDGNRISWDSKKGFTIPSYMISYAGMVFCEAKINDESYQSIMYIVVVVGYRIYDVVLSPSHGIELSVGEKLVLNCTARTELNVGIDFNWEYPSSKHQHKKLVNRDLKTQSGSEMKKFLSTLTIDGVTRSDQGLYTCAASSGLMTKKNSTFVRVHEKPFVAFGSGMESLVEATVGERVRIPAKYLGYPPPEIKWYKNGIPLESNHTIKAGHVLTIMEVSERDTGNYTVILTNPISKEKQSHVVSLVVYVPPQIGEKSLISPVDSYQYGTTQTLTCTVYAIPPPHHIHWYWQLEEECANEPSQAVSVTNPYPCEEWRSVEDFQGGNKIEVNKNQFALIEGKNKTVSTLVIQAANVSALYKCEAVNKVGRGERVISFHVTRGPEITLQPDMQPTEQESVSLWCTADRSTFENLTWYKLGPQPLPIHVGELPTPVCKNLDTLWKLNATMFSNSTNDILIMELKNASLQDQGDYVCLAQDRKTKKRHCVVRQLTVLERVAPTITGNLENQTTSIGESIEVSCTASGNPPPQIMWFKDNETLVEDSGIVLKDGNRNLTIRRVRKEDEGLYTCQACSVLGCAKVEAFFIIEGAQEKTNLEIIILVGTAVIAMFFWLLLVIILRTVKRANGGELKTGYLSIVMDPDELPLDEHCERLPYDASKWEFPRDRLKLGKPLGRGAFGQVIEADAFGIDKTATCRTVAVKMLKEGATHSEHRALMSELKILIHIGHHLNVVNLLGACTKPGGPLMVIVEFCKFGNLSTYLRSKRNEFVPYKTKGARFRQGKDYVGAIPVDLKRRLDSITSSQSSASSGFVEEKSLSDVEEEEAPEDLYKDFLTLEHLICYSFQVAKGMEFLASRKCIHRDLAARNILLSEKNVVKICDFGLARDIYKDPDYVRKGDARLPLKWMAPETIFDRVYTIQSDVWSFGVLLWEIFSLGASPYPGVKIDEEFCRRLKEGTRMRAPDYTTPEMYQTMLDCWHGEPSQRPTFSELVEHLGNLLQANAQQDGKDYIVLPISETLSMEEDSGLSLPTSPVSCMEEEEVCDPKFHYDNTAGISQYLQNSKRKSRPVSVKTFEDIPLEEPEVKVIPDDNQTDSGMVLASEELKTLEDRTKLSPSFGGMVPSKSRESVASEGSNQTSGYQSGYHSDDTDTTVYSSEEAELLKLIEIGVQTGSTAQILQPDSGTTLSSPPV

SMILES	IC50 [1, 4] [µM]	IC50 [2] [µM]	cell IGF, outcome of primary assay [2]	IC50 [3] [µM]	IC50 [1] [µM]	bio SRC, outcome of primary assay [3]
COc1ccc2c(c1)C(CC(=O)O)C/C2=C1/C(=O)Nc2ccccc21 (stereo not shown) [Compound 11, [6-Methoxy-3-(2-oxo-1,2-dihydroindol-3-ylidene)-indan-1-yl]acetic Acid]	0.02	> 100	–	–	–	–
CN(C)c1ccc2c(c1)CC/C2=C1/C(=O)Nc2ccccc21 [Compound 5, 3-(5-Dimethylaminoindan-1-ylidene)-1,3-dihydroindol-2-one]	3.1	–	DNH	> 100	–	–
COc1cc2c(cc1OC)/C(=C1\C(=O)Nc3ccccc31)CC2 [Compound 12, 3-(5,6-Dimethoxyindan-1-ylidene)-1,3-dihydroindol-2-one]	> 25	> 25	–	> 25	–	–
COc1ccc2c(c1)CC/C2=C1/C(=O)Nc2ccccc21 [Compound 3, 3-(5-Methoxyindan-1-ylidene)-1,3-dihydroindol-2-one]	–	–	DNH	–	2.6	DNH
COc1ccc2c(c1)C(CC(=O)[O-])CC2=C1C(=O)Nc2ccccc21.[Na+] (stereo not shown) [Compound 13, [6-Methoxy-3-(2-oxo-1,2-dihydroindol-3-ylidene)-indan-1-yl]acetic Acid Sodium Salt]	–	> 100	–	–	–	–
O=C1Nc2ccccc2/C1=C1\CCc2cc(Cl)ccc21 [Compound 7, 3-(5-Chloroindan-1-ylidene)-1,3-dihydroindol-2-one]	7.1	–	DNH	> 100	–	–
O=C1Nc2ccccc2/C1=C1\CCc2cc(N3CCCCC3)ccc21 [Compound 8, 3-(5-Piperidin-1-yl-indan-1-ylidene)-1,3-dihydroindol-2-one]	4.3	–	DNH	–	–	–
O=C1Nc2ccccc2/C1=C1\CCc2cc(Br)ccc21 [Compound 9, 3-(5-Bromoindan-1-ylidene)-1,3-dihydroindol-2-one]	2.9	–	DNH	–	–	–
O=C1Nc2ccccc2/C1=C1\CCc2ccccc21 [Compound 10, 3-Indan-1-ylidene-1,3-dihydroindol-2-one]	1.4	> 100	–	> 100	–	–
CC1C/C(=C2/C(=O)Nc3ccccc32)c2ccccc21 (stereo not shown) [Compound 1, 3-(3-methylindan-1-ylidene)-1,3-dihydroindol-2-one]	18.4	–	DNH	–	–	DNH
Cc1cccc2c1CC/C2=C1/C(=O)Nc2ccccc21 [Compound 2, 3-(4-Methylindan-1-ylidene)-1,3-dihydroindol-2-one]	8.2	–	DNH	–	–	DNH
